Test results from US7270837B2, “Anti-inflammatory cranberry flavonol extract preparations” (Rutgers, The State University of New Jersey, priority 2003, dated 2007).
“Also recorded” adds a separate entry of the source.

System: TPA-induced edema of mouse ears
Assay: TPA-induced mouse ear edema assay of quercetin-3-O-(6″-benzoyl)-β-galactoside (Example 3)
Format: in vivo, mouse (CD-1 female)
Details: topical, purified compound
Protocol: The anti-inflammatory activity of quercetin-3-O-(6″-benzoyl)-β-galactoside (Peak 19) was tested in vivo with the 12-O-tetradecanoylphorbol-13-acetate (TPA)-induced mouse ear edema assay. Each of the treatments was topically applied to both ears of at least five CD-1 female mice. Treatments included application of either acetone or curcumin controls or the test extract in 20 μl of acetone twenty minutes prior to application of 1.5 nmol of TPA in acetone. After 7 hours post-treatment, mice were sacrificed and 6 mm diameter ear punch biopsies were taken and weighed. The ratio of the difference in the weight of ear punches between TPA treated groups receiving pretreatments of acetone and the test extract, respectively, to the difference in the weight of ear punches between acetone pretreated groups subsequently treated with TPA and acetone, respectively, indicates the degree of anti-inflammatory activity of the test extract.

`O=C(OC[C@H]1O[C@@H](Oc2c(-c3ccc(O)c(O)c3)oc3cc(O)cc(O)c3c2=O)[C@H](O)[C@@H](O)[C@H]1O)c1ccccc1` [quercetin-3-O-(6″-benzoyl)-β-galactoside] was tested, and the “anti-inflammatory activity in the TPA-induced mouse ear edema assay (in words)” value was “potent anti-inflammatory agent; also recorded: highly effective inhibitor of inflammation”.
